According to US6511978B1, “Pyrrole derivatives useful for farnesyl transferase inhibitors and their preparations” (LG Life Sciences, Ltd., priority 1999, dated 2003):

Columns and labels:
Ras farnesyl transferase [1] = target: T1, Ras farnesyl transferase (Homo sapiens, UniProt P49354+P49356); assay: Ras farnesyl transferase enzyme inhibition, H-Ras substrate; format: biochemical; details: H-Ras substrate protein; recombinant farnesyl transferase; 30 minutes at 37° C.
T1 construct: made in house
Text: (§1) In the present experiment, the improved Pompliano's method (see: Pompliano et al., Biochemistry, 31, 3800, 1992) was applied. Specifically, Ras farnesyl transferase produced by genetic recombination techniques was used, and fused protein of H-Ras(H-Ras-CVLS) substituted with polybasic lysine domain at C-terminus of K-Ras (see: Korean Patent Appln. No. 97-14409) was used as a substrate after it had been purified according to the known method(see, Chung et al., Biochimica et Biophysica Acta, 1129, 278, 1992).
(§2) The enzyme reaction was performed in 50 μl of 50 mM Sodium HEPES buffer solution containing 25 mM of potassium chloride, 25 mM of magnesium chloride, 10 mM of DTT and 50 μM of zinc chloride. 1.5 μM of Ras substrate protein, 0.15 μM of tritium-farnesylpyrophosphate and 4.5 nM of farnesyl transferase were used. More specifically, in the initial step, farnesyl transferase was added to the above buffer solution, reaction was maintained for 30 minutes at 37° C. and then the reaction was stopped by adding 1 ml of ethanol solution containing 1M HCl. The formed precipitates were adsorbed to GF/B filter using Hopper harvestor(Hopper #FH 225V) for filter-binding, washed with ethanol, and then radioactivity of the dried filter was measured using LKB β counter. Enzyme titer was measured in the unsaturated state of substrate where the concentration of Ras substrate protein and farnesyl transferase have quantitative relationship. The compound according to the present invention dissolved in dimethyl sulfoxide(DMSO) was added to the reaction solution in an amount of less than 5% of the total reaction solution, and then the enzyme inhibitory activity thereof was measured. The enzyme inhibitory activity was represented by percentage of the amount of farnesyl incorporated into the Ras substrate protein in the presence of the test compound to that in the absence of the test compound. IC50 of the test compound was defined as the concentration at which 50% of the enzyme activity was inhibited. To evaluate the selective enzyme inhibitory activity of the compound according to the present invention, inhibitory activity on geranylgeranyl transferase was measured. Geranylgeranyl transferase was purified from bovine brain according to the modified Schaber's method(Schaber et al., J. Biol. Chem. 265, 14701, 1990), and substantially the same experimental procedure as that for farnesyl transferase was performed on geranylgeranyl pyrophosphate and Ras-CVIL substrate protein.

Ras farnesyl transferase [2] = target: T2, Ras farnesyl transferase (Rattus norvegicus, UniProt Q02293+Q04631); assay: In vivo (intracellular) Ras farnesylation inhibition in Rat2 cell line transformed with H-Ras fused with polybasic lysine domain of K-Ras; format: cell-based; details: Rat2 cells transformed with H-Ras/K-Ras polybasic domain fused protein; concentration inhibiting 50% of farnesyl binding; read-out: K-Ras CIC50
T2 construct: endogenous in cells; host or cells: Rat2 fibroblasts transformed with C-Harvey-Ras or with the H-Ras/K-Ras polybasic-domain fusion
Method: (§3) In the present experiment, Rat2 cell line which expresses C-Harvey-Ras protein having transforming activity and Rat2 cell line(Korean patent application No. 97-14409) which is transformed with fused protein of H-Ras substituted with polybasic lysine domain at C-terminus of K-Ras were used. The experiment was performed by the modified Declue's method(Declue. J. E. et al., Cancer Research, 51, 712, 1991) as follows.
(§4) 3×10^5 cells of transformed Rat2 fibroblast cell line were sprayed on 60 mm cell cultivation dish and cultivated for 48 hours in a cell incubator at 37° C. and after 50% or more of density was reached, it was treated with the test compounds. The compound according to the present invention dissolved in dimethylsulfoxide(DMSO) was used. 1% concentration of dimethylsulfoxide was used in both control and test groups. After 4 hours from the treatment with the compound, methionine labeled with 150 μCi of radioactive isotope [^35S] per 1 ml of medium was added and after cultivating for 20 hours, the cells were washed with physiological saline water. The cells were lysed using 1 ml of cold cell lysis buffer solution(50 mM of Sodium HEPES buffer solution containing 5 mM of magnesium chloride, 1 mM of DTT, 1% NP 40, 1 mM of EDTA, 1 mM of PMSF, 2 μM of leupeptin, 2 μM of pepstatin A and 2 μM of antipain) and the supernatant wherein the cells were lysed was obtained by high-velocity centrifugation of 12,000 g×5 minutes. The amount of radioisotope in the supernatant was measured and standardized to obtain a quantitative result in immunoprecipitation reaction and then, Y13-259, a monoclonal antiboby specifically binding to Ras protein(see: Furth, M. E. et al., J. Virol, 43, 294, 1982) was added and reacted for 15 hours at 4° C. Protein A(combined with goat anti-murine immunoglobulin antibody)-agarose suspension was added to the solution and reacted for 1 hour at 4° C. and then, to remove the unspecific binding product, immunoprecipitates were washed with a buffer solution (50 mM Tris chloride buffer solution containing 50 mM of sodium chloride, 0.5% of sodium dioxycholate, 0.5% of NP 40 and 0.1% of SDS). The precipitates were added to a buffer solution for electrophoresis and boiled and then, electrophoresis was performed using 13.5% of SDS polyacrylamide gel. After electrophoresis, the gel was fixed and dried. Then, the gel was exposed to X-ray film, developed and printed. From the result of the experiment, intensities of band of protein combined with or without farnesyl of Ras protein was measured, and the concentration of the test compound inhibiting 50% of farnesyl binding was defined as CIC50, an in vivo Ras farnesyl transferase inhibitory activity. IC50 means the data from Experimental 1 and CIC50 means the data from Experimental 2.

Ras farnesyl transferase [3] = target: T1, Ras farnesyl transferase; assay: Ras farnesyl transferase enzyme inhibition, K-Ras substrate (H-Ras fused with polybasic lysine domain of K-Ras); format: biochemical; details: K-Ras substrate (fused protein of H-Ras with polybasic lysine domain of K-Ras); recombinant farnesyl transferase
Text: as §1, §2

Ras farnesyl transferase [4] = target: T2, Ras farnesyl transferase; assay: In vivo (intracellular) Ras farnesylation inhibition in Rat2 cell line expressing C-Harvey-Ras; format: cell-based; details: Rat2 cells expressing C-Harvey-Ras; concentration inhibiting 50% of farnesyl binding; read-out: H-Ras CIC50
Method: as §3, §4

SMILES | IC50 (Ras farnesyl transferase [1]) | IC50 (Ras farnesyl transferase [2]) | IC50 (Ras farnesyl transferase [3]) | IC50 (Ras farnesyl transferase [4])
Cc1ncn(CCCOCc2ccccc2Cl)c1Cn1cc(C(=O)N2CCN(C)CC2)c(-c2cccc3ccccc23)c1 [Example 31, 1-{1-[3-(2-chlorobenzyloxy)propyl]-4-methyl-1H-imidazol-5-ylmethyl}-3-(4-methylpiperazin-1-yl)carbonyl-4-(naphthalen-1-yl)-1H-pyrrole] | < 3.2 nM | < 10000 nM | < 2.1 nM | < 6.25 nM
COCCN(C)C(=O)c1cn(Cc2c(C)ncn2CCCOCc2ccccc2Cl)cc1-c1cccc2ccccc12 [Example 32, 1-{1-[3-(2-chlorobenzyloxy)propyl]-4-methyl-1H-imidazol-5-ylmethyl}-3-[N-(2-methoxyethyl)-N-methyl]carbamoyl-4-(naphthalen-1-yl)-1H-pyrrole] | < 6 nM | > 10000 nM | < 15 nM | < 6.25 nM
Cc1ncc(Cn2cc(C(=O)N3CCN(C)CC3)c(-c3cccc4ccccc34)c2)n1CCCOCc1ccccc1 [Example 33, 1-[1-(3-benzyloxypropyl)-2-methyl-1H-imidazol-5-ylmethyl]-3-(4-methylpiperazin-1-yl)carbonyl-4-(naphthalen-1-yl)-1H-pyrrole] | > 30 nM | > 10000 nM | > 30 nM | > 30 nM
Cc1ncc(Cn2cc(C(=O)N3CCN(C)CC3)c(-c3cccc4ccccc34)c2)n1CCc1ccccc1 [Example 35, 1-[1-(phenethyl)-2-methyl-1H-imidazol-5-ylmethyl]-3-(4-methylpiperazin-1-yl)carbonyl-4-(naphthalen-1-yl)-1H-pyrrole] | < 2.5 nM | > 10000 nM | < 5.9 nM | < 2.5 nM
O=[N+]([O-])c1cn(Cc2cncn2Cc2ccc3c(c2)OCO3)cc1-c1cccc2ccccc12 [Example 36, 1-[1-(3,4-methylenedioxybenzyl)-1H-imidazol-5-ylmethyl]-4-(naphthalen-1-yl)-3-nitro-1H-pyrrole] | < 5.5 nM | > 20000 nM | < 15.5 nM | > 100 nM
O=[N+]([O-])c1cn(Cc2cncn2Cc2ccc(Cl)cc2)cc1-c1cccc2ccccc12 [Example 37, 1-[1-(4-chlorobenzyl)-1H-imidazol-5-ylmethyl]-4-(naphthalen-1-yl)-3-nitro-1H-pyrrole] | < 5.7 nM | > 10000 nM | < 9.5 nM | > 25 nM
O=[N+]([O-])c1cn(Cc2cncn2Cc2ccc(Br)cc2)cc1-c1cccc2ccccc12 [Example 38, 1-[1-(4-bromobenzyl)-1H-imidazol-5-ylmethyl]-4-(naphthalen-1-yl)-3-nitro-1H-pyrrole] | < 23 nM | > 10000 nM | > 30 nM | > 25 nM
O=[N+]([O-])c1cn(Cc2cncn2CCc2ccccc2)cc1-c1cccc2ccccc12 [Example 39, 1-[1-(phenethyl)-1H-imidazol-5-ylmethyl]-4-(naphthalen-1-yl)-3-nitro-1H-pyrrole] | < 6 nM | > 10000 nM | < 8.3 nM | < 25 nM
Cc1ccc(CCn2cncc2Cn2cc(-c3cccc4ccccc34)c([N+](=O)[O-])c2)cc1 [Example 40, 1-[1-(4-methylphenethyl)-1H-imidazol-5-ylmethyl]-4-(naphthalen-1-yl)-3-nitro-1H-pyrrole] | < 24 nM | > 10000 nM | > 30 nM | > 50 nM
O=[N+]([O-])c1cn(Cc2cncn2CCc2ccc(Cl)cc2)cc1-c1cccc2ccccc12 [Example 41, 1-[1-(4-chlorophenethyl)-1H-imidazol-5-ylmethyl]-4-(naphthalen-1-yl)-3-nitro-1H-pyrrole] | < 9 nM | > 10000 nM | < 4 nM | > 50 nM
O=[N+]([O-])c1cn(Cc2cncn2CCc2ccc(F)cc2)cc1-c1cccc2ccccc12 [Example 42, 1-[1-(4-fluorophenethyl)-1H-imidazol-5-ylmethyl]-4-(naphthalen-1-yl)-3-nitro-1H-pyrrole] | < 4.15 nM | > 10000 nM | < 7.5 nM | > 50 nM
O=[N+]([O-])c1cn(Cc2cncn2CCc2cccc(Br)c2)cc1-c1cccc2ccccc12 [Example 43, 1-[1-(3-bromophenethyl)-1H-imidazol-5-ylmethyl]-4-(naphthalen-1-yl)-3-nitro-1H-pyrrole] | < 3 nM | > 10000 nM | < 13 nM | > 50 nM
COc1ccc(CCn2cncc2Cn2cc(-c3cccc4ccccc34)c([N+](=O)[O-])c2)cc1 [Example 44, 1-[1-(4-methoxyphenethyl)-1H-imidazol-5-ylmethyl]-4-(naphthalen-1-yl)-3-nitro-1H-pyrrole] | < 11 nM | > 10000 nM | < 15 nM | < 25 nM
COc1cccc(CCn2cncc2Cn2cc(-c3cccc4ccccc34)c([N+](=O)[O-])c2)c1 [Example 45, 1-[1-(3-methoxyphenethyl)-1H-imidazol-5-ylmethyl]-4-(naphthalen-1-yl)-3-nitro-1H-pyrrole] | < 16 nM | > 10000 nM | < 16 nM | < 25 nM
O=[N+]([O-])c1cn(Cc2cncn2CCc2cccc3ccccc23)cc1-c1cccc2ccccc12 [Example 46, 1-[1-(naphthalen-1-ylethyl)-1H-imidazol-5-ylmethyl]-4-(naphthalen-1-yl)-3-nitro-1H-pyrrole] | < 7 nM | > 10000 nM | < 6 nM | > 50 nM
CCOCCCn1cncc1Cn1cc(-c2cccc3ccccc23)c([N+](=O)[O-])c1 [Example 47, 1-[1-(3-ethoxypropyl)-1H-imidazol-5-ylmethyl]-4-(naphthalen-1-yl)-3-nitro-1H-pyrrole] | < 15 nM | > 10000 nM | < 29 nM | < 12.5 nM
Cn1cncc1Cn1cc(-c2cccc3ccccc23)c([N+](=O)[O-])c1 [Example 48, 1-[1-(methyl)-1H-imidazol-5-ylmethyl]-4-(naphthalen-1-yl)-3-nitro-1H-pyrrole] | > 30 nM | > 10000 nM | > 30 nM | > 50 nM
